We go through one molecule from publication PMC6385087, “New Multitarget Hybrids Bearing Tacrine and Phenylbenzothiazole Motifs as Potential Drug Candidates for Alzheimer’s Disease” (Molecules, 2019).

Molecules are shown by their SMILES.

The assay concerns SH-SY5Y cells. Kind of assay: Neuroprotection against ferrous sulfate/L-ascorbic acid toxicity, MTT reduction. The settings on record: Fe/Asc 500 μM/5 mM, 24 h after 1 h pre-treatment, compounds: 16 2.5 µM, 17 0.5 µM, 14 and 15 0.2 µM, 19 and 18 1 µM. Format: cell-based, human. As to the method:
The neuroprotective effect of TAC-PhBTA conjugates was evaluated using SH-SY5Y cells treated with Aβ1–42 peptides or ascorbate/iron. For each compound, a dose-response curve was performed to select a non-toxic concentration in order to analyze its neuroprotective effect (Figure 3).
SH-SY5Y human neuroblastoma cell line (ATCC-CRL-2266) grown in Dulbecco’s modified Eagle’s medium (DMEM) obtained from Gibco-Invitrogen (Life Technologies Ltd., Liverpool, UK) with 10% heat inactivated fetal calf serum, containing 50 U/mL penicillin, and 50 μg/mL streptomycin, under a humidified atmosphere of 95% air-5% CO2 at 37 °C. Cells were plated at 0.12 × 10^6 cells/mL for cell viability assay. The tested compounds (16, 17, 14, 15, 19 and 18) were dissolved in DMSO at a concentration of 25 mM and aliquots were stored at −20 °C. We performed a dose-response screening (from 0.2 μM to 5 μM) in order to choose the highest non-toxic concentration. […]
Cell viability was determined by a MTT (3-(4,5-dimethylthiazol-2-yl)-2,5-diphenyltetrazolium bromide) reduction test. […] The absorbance was measured at 570 nm. Cell reduction ability was expressed as a percentage of untreated control cells.
All data were expressed as mean ± S.E.M. of at least three independent experiments performed in duplicates. […]
In general terms: Formazan colour is commonly taken as a measure of viable cells.

`COc1cc(-c2nc3ccccc3s2)ccc1OCC(=O)NCCCNc1c2c(nc3ccccc13)CCCC2` [compound 16, 2-(4-(Benzo[d]thiazol-2-yl)-2-methoxyphenoxy)-N-(3-((1,2,3,4-tetrahydroacridin-9-yl)amino)propyl)acetamide]: the “Neuroprotective effect against Asc/Fe toxicity (cell viability, MTT)” value is “statistical significant neuroprotective effect”.
